In patent publication US12492173B2, “Herbicidal substituted N-tetrazolyl aryl carboxamides” (Bayer Aktiengesellschaft, priority 2019, dated 2025):

Assays:
Type in all cases: in vivo
[1] = system: Amaranthus retroflexus; experiment: Pre-emergence herbicidal action, AMARE; parameters: key to Herbicidal action against AMARE: % activity: 100 = plants have died, 0 = like control plants; conditions: for herbicidal action AMARE / herbicidal activity AMARE: dosage 320 g/ha; for Herbicidal action against AMARE: comparative experiment; for herbicidal activity AMARE: scored visually after 3 weeks vs untreated controls (100% = plants have died)
Method in brief: (§1)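 Sown pots (sandy loam) sprayed pre-emergence → greenhouse → visual rating at 3 weeks; % activity vs untreated control, 100% = dead.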

[2] = system: Alopecurus myosuroides; experiment: Post-emergence herbicidal action, ALOMY; parameters: key: % herbicidal action vs untreated; 100 = plants died, 0 = like control
Method in brief: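 One-leaf-stage weeds, raised from seed in greenhouse sandy loam, received a single foliar spray of compound as wettable powder or emulsion concentrate with 0.2% wetting agent added. Growth continued under optimal conditions for about 3 weeks before percent damage was scored by eye against controls.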

[3] = system: Cyperus esculentus; experiment: Post-emergence herbicidal action, CYPES; parameters: key: % herbicidal action vs untreated; 100 = plants died, 0 = like control; conditions: for Herbicidal action against CYPES: comparative experiment
Method: [table] 2. Post-Emergence Herbicidal Action Against Harmful Plants Seeds of monocotyledonous and dicotyledonous weed and crop plants are laid out in sandy loam soil in wood-fiber pots, covered with soil and cultivated in a greenhouse under good growth conditions. 2 to 3 weeks after sowing, the test plants are treated at the one-leaf stage. The compounds of the invention, formulated in the form of wettable powders (WP) or as emulsion concentrates (EC), are then sprayed onto the green parts of the plants in the form of an aqueous suspension or emulsion at a water application rate equating to 600 to 800 l/ha, with addition of 0.2% wetting agent. After the test plants have been left to stand in the greenhouse under optimal growth conditions for about 3 weeks, the action of the preparations is assessed visually in comparison to untreated controls (herbicidal action in percent (%): 100% activity=the plants have died, 0% activity=like control plants). […] The tables below illustrate, in an exemplary manner, the post-emergence herbicidal action of the compounds according to the invention, the herbicidal activity being stated in percent. In the experiments that follow, herbicidal action of numerous inventive compounds and the known compounds that are structurally closest from D1 (WO 2012/028579 A1) and D2 (WO 2018/202535 A1) were compared under the above-specified conditions by the pre-emergence and post-emergence method. The example numbers given in the tables relate to the compounds disclosed in the respective documents. In addition to the compounds disclosed in D1 and D2, the following compounds V-1 to V-14 that are encompassed by D1 or D2 but are not compounds specified therein were used in the comparative experiments: • V-1: 2-(methylsulfanyl)-3-(methylsulfinyl)-N-(1-methyl-1H-tetrazol-5-yl)-4-(trifluoromethyl)benzamide • V-2: 2-(methylsulfanyl)-3-(methylsulfonyl)-N-(1-methyl-1H-tetrazol-5-yl)-4-(trifluoromethyl)benzamide • V-3: 2,3-bis(ethylsulfanyl)-N-(1-methyl-1H-tetrazol-5-yl)-4-(trifluoromethyl)benzamide • V-4: 2-chloro-3-(ethylsulfanyl)-N-(1-methyl-1H-tetrazol-5-yl)-4-(trifluoromethyl)benzamide • V-5: 2-chloro-4-iodo-3-(methylsulfanyl)-N-(1-methyl-1H-tetrazol-5-yl)benzamide • V-6: 2-chloro-4-iodo-3-(methylsulfinyl)-N-(1-methyl-1H-tetrazol-5-yl)benzamide • V-7: 2-chloro-4-iodo-3-(methylsulfonyl)-N-(1-methyl-1H-tetrazol-5-yl)benzamide • V-8: 2-bromo-3-(methylsulfanyl)-N-(1-methyl-1H-tetrazol-5-yl)-4-(trifluoromethyl)benzamide • V-9: 2-bromo-3-(methylsulfinyl)-N-(1-methyl-1H-tetrazol-5-yl)-4-(trifluoromethyl)benzamide • V-10: 2-bromo-3-(methylsulfonyl)-N-(1-methyl-1H-tetrazol-5-yl)-4-(trifluoromethyl)benzamide • V-11: 2-bromo-3-(ethylsulfanyl)-N-(1-methyl-1H-tetrazol-5-yl)-4-(trifluoromethyl)benzamide • V-12: 2-bromo-3-(ethylsulfinyl)-N-(1-methyl-1H-tetrazol-5-yl)-4-(trifluoromethyl)benzamide • V-13: 2-bromo-3-(ethylsulfonyl)-N-(1-methyl-1-1H-tetrazol-5-yl)-4-(trifluoromethyl)benzamide • V-14: 2-cyclopropyl-3-(ethylsulfanyl)-N-(1-methyl-1H-tetrazol-5-yl)-4-(trifluoromethyl)benzamide Herbicidal Pre-Emergence Action: […]

[4] = system: Lolium multiflorum; experiment: Pre-emergence herbicidal action, LOLMU; conditions: dosage 320 g/ha, scored visually after 3 weeks vs untreated controls (100% = plants have died)
Excerpt: 1. Pre-Emergence Herbicidal Action Against Harmful Plants Seeds of monocotyledonous and dicotyledonous weed plants and crop plants are laid out in sandy loam soil in wood-fiber pots and covered with soil. The compounds of the invention, formulated in the form of wettable powders (WP) or as emulsion concentrates (EC), are then applied to the surface of the covering soil in the form of an aqueous suspension or emulsion at a water application rate equating to 600 to 800 l/ha, with addition of 0.2% wetting agent. After the treatment, the pots are placed in a greenhouse and kept under good growth conditions for the trial plants. The damage to the test plants is scored visually after a test period of 3 weeks by comparison with untreated controls (herbicidal activity in percent (%): 100% activity=the plants have died, 0% activity=like control plants). […] The tables below illustrate, in an exemplary manner, the […] herbicidal action of the compounds according to the invention, the herbicidal activity being stated in percent. [table] In the experiments that follow, herbicidal action of numerous inventive compounds and the known compounds that are structurally closest from D1 (WO 2012/028579 A1) and D2 (WO 2018/202535 A1) were compared under the above-specified conditions by the pre-emergence and post-emergence method. The example numbers given in the tables relate to the compounds disclosed in the respective documents. In addition to the compounds disclosed in D1 and D2, the following compounds V-1 to V-14 that are encompassed by D1 or D2 but are not compounds specified therein were used in the comparative experiments: • V-1: 2-(methylsulfanyl)-3-(methylsulfinyl)-N-(1-methyl-1H-tetrazol-5-yl)-4-(trifluoromethyl)benzamide • V-2: 2-(methylsulfanyl)-3-(methylsulfonyl)-N-(1-methyl-1H-tetrazol-5-yl)-4-(trifluoromethyl)benzamide • V-3: 2,3-bis(ethylsulfanyl)-N-(1-methyl-1H-tetrazol-5-yl)-4-(trifluoromethyl)benzamide • V-4: 2-chloro-3-(ethylsulfanyl)-N-(1-methyl-1H-tetrazol-5-yl)-4-(trifluoromethyl)benzamide • V-5: 2-chloro-4-iodo-3-(methylsulfanyl)-N-(1-methyl-1H-tetrazol-5-yl)benzamide • V-6: 2-chloro-4-iodo-3-(methylsulfinyl)-N-(1-methyl-1H-tetrazol-5-yl)benzamide • V-7: 2-chloro-4-iodo-3-(methylsulfonyl)-N-(1-methyl-1H-tetrazol-5-yl)benzamide • V-8: 2-bromo-3-(methylsulfanyl)-N-(1-methyl-1H-tetrazol-5-yl)-4-(trifluoromethyl)benzamide • V-9: 2-bromo-3-(methylsulfinyl)-N-(1-methyl-1H-tetrazol-5-yl)-4-(trifluoromethyl)benzamide • V-10: 2-bromo-3-(methylsulfonyl)-N-(1-methyl-1H-tetrazol-5-yl)-4-(trifluoromethyl)benzamide • V-11: 2-bromo-3-(ethylsulfanyl)-N-(1-methyl-1H-tetrazol-5-yl)-4-(trifluoromethyl)benzamide • V-12: 2-bromo-3-(ethylsulfinyl)-N-(1-methyl-1H-tetrazol-5-yl)-4-(trifluoromethyl)benzamide • V-13: 2-bromo-3-(ethylsulfonyl)-N-(1-methyl-1-1H-tetrazol-5-yl)-4-(trifluoromethyl)benzamide • V-14: 2-cyclopropyl-3-(ethylsulfanyl)-N-(1-methyl-1H-tetrazol-5-yl)-4-(trifluoromethyl)benzamide Herbicidal Pre-Emergence Action: […]

[5] = system: Stellaria media; experiment: Pre-emergence herbicidal action, STEME; parameters: key to Herbicidal action against STEME: % activity: 100 = plants have died, 0 = like control plants; conditions: for Herbicidal action against STEME: comparative experiment, 20 g of a.i./ha; for herbicidal activity STEME / herbicidal action STEME: dosage 320 g/ha; for herbicidal activity STEME: scored visually after 3 weeks vs untreated controls (100% = plants have died)
Method in brief: as §1

| Compound | herbicidal action AMARE [1] | herbicidal action STEME [5] | herbicidal action ALOMY ([2]; Dosage 80 g/ha) | other results |
| --- | --- | --- | --- | --- |
| CCSCc1c(C(F)(F)F)ccc(C(=O)Nc2nnnn2CC)c1C [Example 2-86] | 100% | – | – | herbicidal action ALOMY ([2]; post-emergence, dosage 80 g/ha): 90%; herbicidal action CYPES ([3]; post-emergence, dosage 80 g/ha): 80% |
| CCSCc1c(C(F)(F)F)ccc(C(=O)Nc2nnnn2C)c1SCC [Example 1-182] | – | – | – | Herbicidal action against AMARE ([1]; 20 g of a.i./ha): 70; herbicidal activity AMARE [1]: 100%; herbicidal activity LOLMU [4]: 90%; Herbicidal action against STEME [5]: 90; herbicidal activity STEME [5]: 90% |
| CSCc1c(Cl)ccc(C(=O)Nc2nnnn2C)c1Cl [Example 1-559] | 100% | 90% | – | herbicidal action ALOMY ([2]; post-emergence, dosage 80 g/ha): 90%; herbicidal action CYPES ([3]; post-emergence, dosage 80 g/ha): 90% |
| CCCn1nnnc1NC(=O)c1ccc(C(F)(F)F)c(CSC)c1SC [Example 3-161] | 100% | 100% | – | – |
| CCn1nnnc1NC(=O)c1ccc(Cl)c(CSC)c1Cl [Example 2-559] | 100% | 90% | 90 | – |
| CCn1nnnc1NC(=O)c1ccc(C(F)(F)F)c(CS(=O)(=O)CC)c1C [Example 2-88] | 100% | – | 90 | – |
| CCCn1nnnc1NC(=O)c1ccc(S(C)(=O)=O)c(CSC)c1C [Example 3-37] | 100% | 90% | – | – |
| COc1c(C(=O)Nc2nnnn2C)ccc(Cl)c1CSC [Example 1-570] | 100% | 80% | – | Herbicidal action against CYPES ([3]; post-emergence, 5 g of a.i./ha): 60 |
| CCCn1nnnc1NC(=O)c1ccc(C(F)(F)F)c(C[S+](C)[O-])c1OC (stereo not shown) [Example 3-135] | 100% | 100% | – | – |
| CCCn1nnnc1NC(=O)c1ccc(C(F)F)c(CS(C)(=O)=O)c1Cl [Example 3-322] | – | – | – | herbicidal activity AMARE [1]: 100%; herbicidal activity LOLMU [4]: 80%; herbicidal activity STEME [5]: 100% |
| CCn1nnnc1NC(=O)c1ccc(C(F)(F)F)c(CS(=O)(=O)CC)c1Cl [Example 2-301] | 100% | 80% | 80 | – |
| CCCn1nnnc1NC(=O)c1ccc(C(F)(F)F)c(CS(=O)(=O)CC)c1Cl [Example 3-301] | 100% | 90% | – | – |
| CSCc1c(C)ccc(C(=O)Nc2nnnn2C)c1Cl [Example 1-287] | 90% | 90% | 90 | – |
| CCCn1nnnc1NC(=O)c1ccc(C(F)F)c(CSC)c1SC [Example 3-170] | – | – | – | herbicidal activity AMARE [1]: 100%; herbicidal activity STEME [5]: 100% |
| CCS(=O)(=O)c1c(C(F)(F)F)ccc(C(=O)Nc2nnnn2C)c1Br [Example V-13, 2-bromo-3-(ethylsulfonyl)-N-(1-methyl-1-1H-tetrazol-5-yl)-4-(trifluoromethyl)benzamide, reference compound] | – | – | – | Herbicidal action against AMARE ([1]; 80 g of a.i./ha): 0; Herbicidal action against ALOMY ([2]; comparative experiment, post-emergence, 20 g of a.i./ha): 0; Herbicidal action against CYPES ([3]; post-emergence, 20 g of a.i./ha): 0 |
| CCn1nnnc1NC(=O)c1ccc(C(F)F)c(C[S+](C)[O-])c1SC (stereo not shown) [Example 2-171] | – | – | – | herbicidal activity AMARE [1]: 100%; herbicidal activity STEME [5]: 100% |
| CCCn1nnnc1NC(=O)c1ccc(S(C)(=O)=O)c(CS(C)(=O)=O)c1C [Example 3-39] | 100% | – | – | – |
| CCCn1nnnc1NC(=O)c1ccc(C(F)(F)F)c(CSCC(F)(F)F)c1Cl [Example 3-311] | 100% | 90% | 100 | – |
| COc1c(C(=O)Nc2nnnn2C)ccc(C(F)(F)F)c1C[S+](C)[O-] (stereo not shown) [Example 1-135] | 100% | 80% | – | – |
| Cc1ccc(C(=O)Nc2nnnn2C)c(Cl)c1C[S+](C)[O-] (racemic) [Example 1-288] | 100% | 90% | 80 | herbicidal action CYPES ([3]; Dosage 80 g/ha): 90 |
| CCn1nnnc1NC(=O)c1ccc(S(C)(=O)=O)c(CS(C)(=O)=O)c1Cl [Example 2-280] | 100% | 80% | – | – |
| Cc1c(C(=O)Nc2nnnn2C)ccc(C(F)F)c1C[S+](C)[O-] (stereo not shown) [Example 1-108] | 100% | – | – | – |
| CCCn1nnnc1NC(=O)c1ccc(C(F)(F)F)c(CSCC)c1C [Example 3-86] | 100% | – | – | – |
| CCCn1nnnc1NC(=O)c1ccc(C(F)(F)F)c(CS(C)(=O)=O)c1Br [Example 3-382] | 100% | 100% | – | herbicidal action CYPES ([3]; Dosage 80 g/ha): 80 |
| CCn1nnnc1NC(=O)c1ccc(C(F)F)c(C[S+](C)[O-])c1C (stereo not shown) [Example 2-108] | 100% | – | 80 | – |
| CSCc1c(C(F)F)ccc(C(=O)Nc2nnnn2C)c1Cl [Example 1-320] | – | – | 100 | herbicidal activity AMARE [1]: 90%; Herbicidal action against STEME [5]: 90; herbicidal activity STEME [5]: 90%; herbicidal action CYPES ([3]; Dosage 80 g/ha): 80 |
| CCS(=O)(=O)Cc1c(C(F)(F)F)ccc(C(=O)Nc2nnnn2C)c1C [Example 1-88] | 100% | – | 80 | – |
